Data from paper PMC5838106, “Cathelicidin promotes inflammation by enabling binding of self-RNA to cell surface scavenger receptors” (Scientific Reports, 2018).
Where no end group is shown, it is not given here.

Legend:
[1] = tested on: NHEKs; experiment: Cytokine mRNA expression in NHEKs stimulated with cathelicidin peptide and dsRNA (quantitative real-time PCR); type: cell-based, human; conditions: for capacity to enable U1 RNA to amplify IFN-β1 or IL-6 expression: NHEKs, peptide 2.5 μM 10 minutes, then U1 RNA 2.5 μg/mL 6 hours, n = 3
Experimental: Figure 1 Inflammatory activity of cathelicidin can be dissociated from antimicrobial function (a) Transcriptomic analysis by RNASeq of primary cultures of normal human epidermal keratinocytes (NHEKs) treated with LL37 (2.5 μM) with or without U1 RNA (2.5 μg/mL) for 24 hours. Shown are gene sets induced > 2 fold over vehicle, and after treatment with LL37, U1 RNA, or the combination of LL37 + U1 RNA. (b) Gene Ontology analysis of gene sets from (a). The number of genes related to each biological process is indicated in parentheses. (c) Amino acid sequence of synthetic cathelicidin peptides used in this study. (d) Antimicrobial assay of cathelicidin peptides against group A streptococcus (GAS). GAS were incubated with various concentrations of each peptide (0–25 μM) for 6 hours, then surviving colonies counted after plating on Todd Hewitt Broth gel. (e) IFN-β1 mRNA abundance and (f) IL-6 mRNA abundance in NHEKs after treatment with cathelicidin peptides (2.5 μM) for 10 minutes, then stimulated with U1 RNA (2.5 μg/mL) for a further 6 hours. (n = 3). (g) IFN-β1 mRNA abundance and (h) IL-6 mRNA abundance in […] (PMA)-treated THP1 cells after treatment with cathelicidin peptides (3 μM) for 10 minutes, then stimulated with U1 RNA (12.5 μg/mL) overnight. (n = 3). Data presented are from one representative experiment of at least two independent experiments. Error bars are SEM of three biological replicates. *P < 0.05, **P < 0.01, ***P < 0.001 by two-way ANOVA with Bonferroni’s post-hoc test. See also Fig. S1. […]
RNA was isolated from NHEKs using Purelink RNA isolation columns (ThermoFisher Scientific) according to the manufacturer’s instructions. RNA was quantified using a Nanodrop spectrophotometer (ThermoFisher Scientific), and up to 500 ng of RNA was reverse-transcribed using the iScript cDNA synthesis kit (Bio-Rad, Irvine, CA). Quantitative real-time PCR reactions were run on a CFX96 real-time detection system (Bio-Rad) using gene-specific primers and TaqMan probes (ThermoFisher Scientific). […]

[2] = tested on: NHEKs; experiment: U1 RNA binding to the cell at 4 °C (immunocytofluorescence); type: cell-based, human; conditions: 1 hour, peptide 2.5 μM
Text: Figure 2 Structure and cell binding of cathelicidin and dsRNA. (a) Structures of LL37, LL34, and LL34(I20P) bound to dsRNA were solved using SAXS. SAXS data is plotted as the scattering intensity I(q) vs. the momentum transfer vector q. LL34 (blue) and LL34(I20P) (green) condense dsRNA into square lattices with first peak positions of q10 = 0.167 Å^−1 and 0.170 Å^−1, respectively. Higher order Bragg reflections due to scattering of the square lattice of LL34 and LL34(I20P) are labeled for both complexes. In comparison, LL37 (magenta) condenses dsRNA into a columnar lattice with short-ranged order, with a first peak position of q1 = 0.172 Å^−1. (b) Linear fits of Bragg peak positions indicate that LL34-dsRNA (blue) and LL34(I20P)-dsRNA (green) complexes have inter-dsRNA spacings of 3.76 nm and 3.70 nm, respectively. Each reflection corresponding to the peaks in a for LL34 and LL34(I20P) are labeled. Close overlap of the two linear fits indicate that LL34-dsRNA and LL34(I20P)-dsRNA complexes have similar unit cell structures and inter-dsRNA spacings. End-on views along the dsRNA long-axis of the columnar (c) LL37-dsRNA and (d) LL34-dsRNA or LL34(I20P)-dsRNA complexes are shown. In (d), LL34-dsRNA and LL34(I20P)-dsRNA both form square columnar structures with similar unit cell architectures. […]

## LL37
[1]
  capacity to enable U1 RNA to amplify IFN-β1 or IL-6 expression: large responses
[2]
  capacity to enable U1 RNA to bind to the cell: showed the capacity to enable U1 RNA to bind to the cell

## LLGDFFRKSKEKIGKEFKRIVQRIKDFLRNLVPR [LL34]
[1]
  capacity to enable U1 RNA to amplify IFN-β1 or IL-6 expression: large responses
[1]; peptide with U1 RNA, keratinocytes
  capacity to induce IL-6 and IFN-β mRNA: ca. 3000 fold
[2]
  capacity to enable U1 RNA to bind to the cell: showed the capacity to enable U1 RNA to bind to the cell
